# System: rats
# Experiment: Chronic (10 day) dosing behavioral tests in rats
# Conditions: for acoustic startle reactivity: 50 mg/kg
# Protocol: The effects of chronic dosing of nepicastat in rats were examined. Between three and thirteen days prior to the first dosing day the rats were placed inside the startle apparatus and after a five minute acclimation period they were presented with a 118 dB noise burst on average once a minute (a variable inter-trial interval ranging between 30 and 90 seconds will be used) for 20 minutes. The startle responses were measured and a mean for the last twenty startle response was calculated for each rat.
# The following behavioral tests were administered during and after chronic dosing; body core temperature, motor activity, acoustic startle reactivity, and pre-pulse inhibition of acoustic startle.
# The animals were tested in an enclosed room with a white noise generator running Motor activity tests were conducted immediately after the body core temperature reading taken on dosing day ten (about 3 hours and 35 minutes after the morning daily dose of nepicastat, and SKF-102698, and 20 minutes prior to the daily administration of clonidine and d-amphetamine on dosing day ten). Motor activity tests were run for one hour. A diagnostic program was run on each of the motor activity chambers prior to each test session to assure that the photo beams and light sensors were operating properly. […] D-amphetamine was used as the positive control for this assay.
# Rat body core temperatures were obtained by inserting the rectal probe 2 cm into the colon of each rat. Each rat's body core temperature was measured three times and the average of the three reading was calculated. Body core temperature readings were obtained immediately prior to the ten day chronic dosing schedule (to obtain a baseline), and three and half hour after the morning daily dose of nepicastat, and SKF-102698, and 15 minutes prior to the daily administration of clonidine and d-amphetamine, on dosing days one, five and ten. […] Both clonidine (an alpha2 agonist), and d-amphetamine (a dopamine releaser) were used as the positive controls for this assay.
# Acoustic startle reactivity (a series of muscle contractions elicited by an intense burst of noise with a rapid onset), and pre-pulse inhibition (sensorimotor gating measured by analyzing any decrease in startle reactivity which occurs when a startling stimulus is immediately preceded by a non startling stimulus) were both measured in eight SR-Lab (San Diego Instruments, San Diego, Calif.) test stations. The rats were placed individually in a Plexiglas cylinder (10 cm diameter) which was housed in a ventilated sound-attenuating enclosure. Acoustic noise bursts (a broad band noise with a rise time and fall time of 1 msec) were presented via a speaker mounted 30 cm above the animal. Also, these speakers produced a 68 dB level of background noise throughout all test sessions. A piezoelectric accelerometer attached below the plexiglass cylinder transduced the subject's movement into a voltage which was then rectified and digitized (on a scale from 0 to 4095) by a PC computer equipped with SR-Lab software and interface assembly. A decibel meter was used to calibrate the speakers in each of the eight test station to ±1% of the mean. Additionally, a SR-Lab calibrating instrument was used to calibrate each of the eight startle detection apparatuses to ±2% of the mean. Startle reactivity and pre-pulse inhibition tests were run concurrently immediately alter the motor activity test (about 4 hours and 40 minutes after the morning daily injection of nepicastat, and SKF-102698, and 10 minutes after a supplemental administration of clonidine and d-amphetamine on dosing day ten).
smiles,measurement,setting,value
"Fc1cc(F)cc(Cn2cc[nH]c2=S)c1 [SKF-102698, reference compound]",pre-pulse inhibition,dosing day ten,Neither d-amphetamine nor SKF-102698 was significantly different
same,locomotor activity vs vehicle,"dosing day ten, nepicastat 5, 15, 50, SKF-102698 50 mg/kg bid, clonidine 20 μg/kg, d-amphetamine 2 mg/kg bid",significantly lower locomotor activity
same,pre-pulse inhibition,"rat, in vivo",marginally higher percent prepulse inhibition
same,acoustic startle reactivity,"rat, in vivo",significantly lower startle response compared to cyclodextrin
"Cl.NCc1c[nH]c(=S)n1[C@H]1CCc2c(F)cc(F)cc2C1 [nepicastat, (S)-5-Aminomethyl-1-(5,7-difluoro-1,2,3,4-tetrahydronaphth-2-yl)-2,3-dihydro-2-thioxo-1H-imidazole hydrochloride]",body core temperature,"rat, in vivo",unaffected
same,pre-pulse inhibition,"rat, in vivo",None of the nepicastat dose groups were significantly different
same,acoustic startle reactivity,"rat, in vivo",significantly higher startle response than the SKF-102698

# Source: patent publication US10561638B2, “Methods for treating dependence” (Biotie Therapies, Inc., priority 2007, dated 2020)
